From PubChem BioAssay AID2060347 (Molecular Pharmacology Branch, DTP, NCI, 2025)
pIC50: −log10 of the molar value.

System: 817829-284-R-J1-PDC spheroids with HUVEC/MSC, viability
Experiment: Anticancer human tumor 817829-284-R-J1-PDC patient-derived colon adenocarcinoma cell line growth inhibition [TAK]
Details: for pIC50: curve of first compound; for viability, T/C: stronger effect = lower value
Procedure, shortened: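 Drug combinations, each paired with TAK-243 or ipatasertib, were tested on multi-cell spheroids of 60% malignant cells, 25% HUVEC and 15% hMSC. Top concentrations were at or near the clinical Cmax (10 microM if undetermined), decreasing by half-log; viability is given as % test/control.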

[1] = second compound 0.3 µM, first compound 0.0316 µM
[2] = second compound 0.3 µM, first compound 0.1 µM
[3] = second compound 0.3 µM, first compound 0.316 µM
[4] = second compound 0.3 µM, first compound 1 µM
[5] = second compound 0.949 µM, first compound 0.0316 µM
[6] = second compound 0.949 µM, first compound 0.1 µM
[7] = second compound 0.949 µM, first compound 0.316 µM
[8] = second compound 0.949 µM, first compound 1 µM
[9] = second compound 3 µM, first compound 0.0316 µM
[10] = second compound 3 µM, first compound 0.1 µM
[11] = second compound 3 µM, first compound 0.316 µM
[12] = second compound 3 µM, first compound 1 µM
[13] = second compound 9.49 µM, first compound 0.0316 µM
[14] = second compound 9.49 µM, first compound 0.1 µM
[15] = second compound 9.49 µM, first compound 0.316 µM
[16] = second compound 9.49 µM, first compound 1 µM
[17] = second compound 30 µM, first compound 0.0316 µM
[18] = second compound 30 µM, first compound 0.1 µM
[19] = second compound 30 µM, first compound 0.316 µM
[20] = second compound 30 µM, first compound 1 µM

| Structure (SMILES) | pIC50 (second compound 0.3 µM) | pIC50 (second compound 0.949 µM) | pIC50 (second compound 3 µM) | pIC50 (second compound 9.49 µM) | pIC50 (second compound 30 µM) | viability, T/C [1] [%] | viability, T/C [2] [%] | viability, T/C [3] [%] | viability, T/C [4] [%] | viability, T/C [5] [%] | viability, T/C [6] [%] | viability, T/C [7] [%] | viability, T/C [8] [%] | viability, T/C [9] [%] | viability, T/C [10] [%] | viability, T/C [11] [%] | viability, T/C [12] [%] | viability, T/C [13] [%] | viability, T/C [14] [%] | viability, T/C [15] [%] | also measured |
| --- | --- | --- | --- | --- | --- | --- | --- | --- | --- | --- | --- | --- | --- | --- | --- | --- | --- | --- | --- | --- | --- |
| COc1c(OCCCN2CCOCC2)ccc2c3n(c(=NC(=O)c4cnc(N)nc4)nc12)CCN3 + CC(C)NCC(C(=O)N1CCN(c2ncnc3c2C(C)CC3O)CC1)c1ccc(Cl)cc1 | 8.08 | > 8.50 | > 8.50 | > 8.50 | > 8.50 | 23.3 | 8.89 | 2.93 | 2.83 | 8.85 | 4.57 | 1.95 | 1.97 | 3.03 | 2.24 | 1.67 | 1.29 | 2.03 | 2.04 | 1.13 | viability, T/C (second compound 0.3 µM, first compound 0.00316 µM): 64.6%; viability, T/C (second compound 0.3 µM, first compound 0.01 µM): 47%; viability, T/C (second compound 0.949 µM, first compound 0.00316 µM): 20.2%; viability, T/C (second compound 0.949 µM, first compound 0.01 µM): 10.4%; viability, T/C (second compound 3 µM, first compound 0.00316 µM): 7.34%; viability, T/C (second compound 3 µM, first compound 0.01 µM): 4.51%; viability, T/C (second compound 9.49 µM, first compound 0.00316 µM): 5.41%; viability, T/C (second compound 9.49 µM, first compound 0.01 µM): 3.12%; viability, T/C [16]: 1.28%; viability, T/C (second compound 30 µM, first compound 0.00316 µM): 3.31%; viability, T/C (second compound 30 µM, first compound 0.01 µM): 1.8%; viability, T/C [17]: 1.37%; viability, T/C [18]: 1.05%; viability, T/C [19]: 0.7%; viability, T/C [20]: 0.47% |
| Cc1nc(NC(=O)N2CCCC2C(N)=O)sc1-c1ccnc(C(C)(C)C(F)(F)F)c1 (stereo not given) + CC(C)NCC(C(=O)N1CCN(c2ncnc3c2C(C)CC3O)CC1)c1ccc(Cl)cc1 | 5.92 | 7.12 | > 7.50 | > 7.50 | > 7.50 | 87.9 | 80.6 | 74.8 | 51.9 | 61.8 | 48.5 | 28.4 | 26.7 | 18.1 | 17 | 13.2 | 6.56 | 9.9 | 9.69 | 8.57 | viability, T/C (second compound 0.3 µM, first compound 3.16 µM): 37%; viability, T/C (second compound 0.3 µM, first compound 10 µM): 33.1%; viability, T/C (second compound 0.949 µM, first compound 3.16 µM): 14.4%; viability, T/C (second compound 0.949 µM, first compound 10 µM): 8.03%; viability, T/C (second compound 3 µM, first compound 3.16 µM): 6.29%; viability, T/C (second compound 3 µM, first compound 10 µM): 5.54%; viability, T/C [16]: 5.76%; viability, T/C (second compound 9.49 µM, first compound 3.16 µM): 3.41%; viability, T/C (second compound 9.49 µM, first compound 10 µM): 2.85%; viability, T/C [17]: 6.53%; viability, T/C [18]: 6.06%; viability, T/C [19]: 4.67%; viability, T/C [20]: 3.84%; viability, T/C (second compound 30 µM, first compound 3.16 µM): 2.64%; viability, T/C (second compound 30 µM, first compound 10 µM): 1.58% |
